Experiment [1] deals with MCF7. Briefly: Antiproliferative activity against human MCF7 cells incubated for 48 hrs by CCK-8 method. The class given is functional, cell-based. To be noted: MCF7, 48 h. (Tetrazolium dyes change colour on reduction, which living cells bring about.)
The subject of experiment [2] is HepG2. The experiment is described as follows: Antiproliferative activity against human HepG2 cells incubated for 48 hrs by CCK-8 method. The class given is functional, cell-based. To be noted: HepG2, 48 h.
Experiment [3] deals with 5637. The experiment is described as follows: Antiproliferative activity against human 5637 cells incubated for 48 hrs by CCK-8 method. To be noted: Homo sapiens, 5637, 48 h. The class given is functional, cell-based.
For experiment [4], the system named is 4T1. Briefly: Antiproliferative activity against mouse 4T1 cells incubated for 48 hrs by CCK-8 method. To be noted: 4T1, 48 h. The class given is functional, cell-based.
The next experiment relates to MDA-MB-468. Briefly: Antiproliferative activity against human MDA-MB-468 cells incubated for 48 hrs by CCK-8 method. The class given is functional, cell-based. To be noted: MDA-MB-468, 48 h.
A further experiment relates to HCC1937. The experiment is described as follows: Antiproliferative activity against human HCC1937 cells incubated for 48 hrs by CCK-8 method. The class given is functional, cell-based. To be noted: HCC1937, 48 h.
A further experiment relates to MCF-10A. Briefly: Antiproliferative activity against human MCF-10A cells incubated for 48 hrs by CCK-8 method. The class given is functional, cell-based.
In experiment [5] the target is Mitogen-activated protein kinase 1 (Homo sapiens, UniProt P28482). The experiment is described as follows: Inhibition of ERK2 (unknown origin) incubated for 60 mins by luminescence based ADP-Glo kinase assay. In general terms: ADP-Glo first removes unused ATP, then detects ADP through luciferase.
For experiment [6], the system named is MCF7. Briefly: Growth inhibition of human MCF7 cells at 5 uM incubated for 48 hrs by CCK-8 method relative to control. The class given is functional. To be noted: read-out: GI.
Experiment [7] relates to HepG2. Briefly: Growth inhibition of human HepG2 cells at 5 uM incubated for 48 hrs by CCK-8 method relative to control. The class given is functional. To be noted: read-out: GI.
In experiment [8] the test system is A549. The experiment is described as follows: Growth inhibition of human A549 cells at 5 uM incubated for 48 hrs by CCK-8 method relative to control. The class given is functional. To be noted: read-out: GI.
Experiment [9] concerns 5637. The experiment is described as follows: Growth inhibition of human 5637 cells at 5 uM incubated for 48 hrs by CCK-8 method relative to control. To be noted: read-out: GI. The class given is functional.
The test system of experiment [10] is A549. Briefly: Antiproliferative activity against human A549 cells incubated for 48 hrs by CCK-8 method. The class given is functional, cell-based. To be noted: A549, 48 h.
The test system of experiment [11] is MCF7. Briefly: Activation of ERK1/2 pathway in human MCF7 cells assessed as increase in EGF-induced ERK phosphorylation at 5 uM incubated for 30 mins by Western blot analysis. To be noted: filed as activator. The class given is cell-based. For orientation: A western blot detects proteins with antibodies after separation by electrophoresis.
Experiment [12] has as its system MCF7. Briefly: Activation of ERK1/2 pathway in human MCF7 cells assessed as increase in EGF-induced c-Myc phosphorylation at 5 uM incubated for 30 mins by Western blot analysis. The class given is cell-based.
Experiment [13] concerns MCF7. Briefly: Activation of ERK1/2 pathway in human MCF7 cells assessed as increase in EGF-induced p90RSK phosphorylation at 5 uM incubated for 30 mins by Western blot analysis. The class given is cell-based.
Experiment [14] concerns MCF7. The experiment is described as follows: Induction of autophagy in human MCF7 cells assessed as increase in LC3B-II level at 5 uM by Western blot analysis. The class given is functional, cell-based.
Experiment [15] has as its system MCF7. Briefly: Induction of autophagy in human MCF7 cells assessed as increase in ATG5 level at 5 uM by Western blot analysis. The class given is functional, cell-based.
Experiment [16] concerns MCF7. The experiment is described as follows: Induction of autophagy in human MCF7 cells assessed as increase in Beclin-1 level at 5 uM by Western blot analysis. The class given is functional, cell-based.
In experiment [17] the test system is 4T1. The experiment is described as follows: Antitumor activity against mouse 4T1 cells implanted in female BALB/c mouse model assessed as tumor growth inhibition at 50 mg/kg, ip qd measured for 18 days relative to control. The class given is functional. To be noted: 4T1, 432 h, time 18 day, read-out: TGI.

Each structure is given as a SMILES string. Activity calls are given as the source filed them. No cut-off for these calls is given here.

A word on the IC50: it is the concentration that inhibits the measured activity by half. Low readings indicate inhibition by little substance, high ones a need for much substance.

Mitogen-activated protein kinase 1, sequence (P28482 whole entry): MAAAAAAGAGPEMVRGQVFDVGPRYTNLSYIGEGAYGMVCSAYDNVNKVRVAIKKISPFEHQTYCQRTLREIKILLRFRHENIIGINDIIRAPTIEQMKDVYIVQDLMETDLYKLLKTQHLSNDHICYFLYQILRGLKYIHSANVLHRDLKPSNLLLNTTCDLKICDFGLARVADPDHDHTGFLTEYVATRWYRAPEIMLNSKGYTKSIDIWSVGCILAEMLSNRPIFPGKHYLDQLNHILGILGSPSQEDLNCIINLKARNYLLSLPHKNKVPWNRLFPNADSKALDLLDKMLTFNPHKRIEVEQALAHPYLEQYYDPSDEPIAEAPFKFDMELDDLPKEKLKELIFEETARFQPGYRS

As for `O=c1[nH]cc(F)c(=O)[nH]1` [FLUOROURACIL], the IC50 in the experiment with MCF7 [1] is 6 µM; in the experiment with HepG2 [2], over 10 µM; in the experiment on 5637 [3] it was 7.4 µM; with 4T1 [4], over 10 µM; in the experiment with MDA-MB-468, over 10 µM; in the experiment with HCC1937, 5.67 µM. The same compound returned an IC50 in the experiment with MCF-10A of over 10 µM.
On to `CC[C@@H](C)[C@@H](Cn1c[n+](Cc2ccccc2)c2ccccc21)NC(=O)Nc1cc(C(F)(F)F)cc(C(F)(F)F)c1`, for which the IC50 in [5] amounted to 0.283 µM; in the experiment with MCF7 [1], 2.68 µM; in the experiment with HepG2 [2] it was 2.33 µM; in the experiment on A549 [10] it was 3.92 µM; in the experiment on 5637 [3], 2.94 µM. In addition, the inhibition of growth at 5 µM in the experiment with MCF7 [6] is 100%; in the experiment on HepG2 [7], 100%; with A549 [8], 97.8%; with 5637 [9] it was 99.5%.
As to `CC(C)Nc1cc(-c2c[nH]c(C(=O)N[C@H](CO)c3cccc(Cl)c3)c2)c(Cl)cn1` [ULIXERTINIB], the IC50 is over 10 µM in the experiment on MCF7 [1]; 6.12 µM with HepG2 [2]; 5.39 µM with A549 [10]; over 10 µM with 5637 [3]; over 10 µM with 4T1 [4]; over 10 µM with MDA-MB-468. Moreover, the IC50 with HCC1937 and in the experiment with MCF-10A was over 10 µM each time. Also, the outcome in the experiment with MCF7 [11], in the experiment with MCF7 [14], in the experiment with MCF7 [15] and in the experiment with MCF7 [16] was Active. Besides, the result in the experiment with MCF7 [12] and with MCF7 [13] was inactive. For the same compound, in the experiment with 4T1 [17], the inhibition in vivo at 50 mg/kg amounted to 26.9%.

These data come from ChEMBL document CHEMBL6153138, “Discovery of Novel Aromatic Urea-Imidazole Salt Derivatives for Cancer Therapy via Targeting ERK1/2” (J Med Chem, 2025).
